# Reference: publication PMC4890880 (ACS infectious diseases, 2016)
# Like-named read-outs stand apart in the source and are kept apart here.
# Key:
# HepG2-A16-CD81EGFP cells [1] = assay: cells; settings: Homo sapiens, HepG2, read-out: % inhibition
# HepG2-A16-CD81EGFP cells [2] = assay: cells; settings: Homo sapiens, HepG2, read-out: % inhibition; remark: listed apart in the source
# HepG2-A16-CD81EGFP cells [3] = tested on: HepG2-A16-CD81EGFP cells
# [4] = tested on: Plasmodium berghei (Pb-Luc) exoerythrocytic-stage parasites; assay: microbe, parasite or virus in culture
# [5] = read-out: Inhibition% @ 50 uM rep1
# [6] = read-out: Inhibition% @ 50 uM rep2
SMILES,inhibition at 50 µM (HepG2-A16-CD81EGFP cells [1]) [%],inhibition at 50 µM (HepG2-A16-CD81EGFP cells [2]) [%],"HepG2 Tox% @ 50 uM rep1 (HepG2-A16-CD81EGFP cells [3]; human, 50 uM) [%]","inhibition at 50 µM [4, 5] [%]","inhibition at 50 µM [4, 6] [%]","HepG2 Tox% @ 50 uM rep2 (HepG2-A16-CD81EGFP cells [3]; human, 50 uM) [%]","HepG2 Tox% @ 50 uM rep1 (HepG2-A16-CD81EGFP cells [3]; HepG2, 50 uM, replicate 1) [%]","HepG2 Tox% @ 50 uM rep2 (HepG2-A16-CD81EGFP cells [3]; HepG2, 50 uM, replicate 2) [%]"
O=C(Nc1ccccc1O)c1ccc(-c2ccc(Cl)cc2Cl)o1 [MMV665948],-7.03,15.3,15,8,-61,–,–,–
COc1ccc(-c2nonc2NC(=O)c2cccc(C)c2)cc1OC [MMV665890],-2.92,-1.53,–,7,13,-3,–,–
CCCc1cc(O)c2c3c(c(=O)oc2c1)CN(C)CC3 [MMV665841],26.3,10.6,–,83,44,–,11,26
COc1cc2cc(C(=O)Nc3ccccc3)c(N)nc2cc1OC [MMV006767],10.2,18.2,–,73,39,10,–,–
CCOC(=O)c1c(NC(=O)c2ccccc2)sc2c(O)c(CN(CC)CC)ccc12 [MMV665831],34.3,26.5,27,96,70,–,–,–
CCCC(c1nnnn1C1CCCCC1)N1CCN(C(=O)c2ccco2)CC1 (centres unmarked) [MMV666093],-2.45,-5.78,-6,52,19,–,–,–
CCN1CCN(c2cc(C)c3cc(NC(=O)c4ccc(OC)c(OC)c4)ccc3n2)CC1 [MMV019074],100,98.4,–,104,104,100,–,–
Cc1cc(NC(=O)c2cccc(C(F)(F)F)c2)n(-c2nc(-c3ccc4c(c3)OCO4)cs2)n1 [MMV396681],-14.2,-14.6,-15,1.11,-36,-14,–,–
CCCN(CCC)CCCNC(=O)c1cc2c(-c3ccc(OC)c(OC)c3)nn(C)c2s1 [MMV000561],100,98.1,–,104,106,100,–,–
CN(C)CCCNc1c2ccccc2nc2ccccc12 [MMV000448],99.5,96.8,–,103,106,100,–,–
CCOC(=O)C1CCN(C(=O)CN2C(=O)c3ccccc3C2c2c[nH]c3ccccc23)CC1 (centres unmarked) [MMV011576],-12.2,-18.5,-19,41,58,-12,–,–
Cc1cc(N2CCN(C3CCCC3)CC2)n2c(nc3ccccc32)c1C#N [MMV006706],-11.2,-9.81,-10,48,24,-11,–,–
Cc1cc(C)cc(Nc2cc(C)nc3nc(C(F)(F)F)nn23)c1 [MMV011259],54.7,29.5,30,100,99,–,–,–
CCCN(CCC)CC(O)COc1ccccc1C(=O)Nc1ccccc1 (centres unmarked) [MMV006455],7.57,-8.15,-8,84,75,–,–,–
Cc1cc(Nc2ccc(Cl)cc2)n2nc(C(F)(F)F)nc2n1 [MMV011256],37.8,37.6,–,102,104,–,–,–
CCOc1ccc(-c2nonc2NC(=O)c2cccc(C)c2)cc1OCC [MMV665805],6.54,0.576,–,44,72,–,–,–
COc1ccc(-n2ccnc2SCC(=O)Nc2cc(C)ccc2C)c(OC)c1 [MMV019258],80.6,63.1,–,102,102,–,–,–
COc1cccc(C2(C)Nc3ccccc3-c3nc4ccccc4n32)c1 (centres unmarked) [MMV396719],99.7,97,–,104,106,100,–,–
O=C(Nc1ccc(N2CCCCC2)c(Cl)c1)c1ccc(Br)o1 [MMV019700],99,97.5,–,104,106,–,–,–
CNCCCNc1ccnc2cc(Cl)ccc12 [MMV020500],101,101,–,104,105,–,–,–
COc1ccc(-c2nc3cc(Cc4ccc5[nH]c(-c6ccc(OC)cc6)nc5c4)ccc3[nH]2)cc1 [MMV007384],99.2,96,–,104,105,–,–,–
CCOC(=O)c1cnc2c(C)cc(C)cc2c1Nc1ccc(OC)c(OC)c1 [MMV008294],-1.86,1.7,–,0.759,0,–,–,–
